Source: patent US8952024B2, “Herbicidal pyrimidone derivatives” (E I du Pont de Nemours and Company, priority 2009, dated 2015)

What was measured:
Assay in all cases: Test B pre-/postemergence plant response
Type in all cases: in vivo
[1] = system: velvetleaf (Abutilon theophrasti)
Summary of the method: (§1)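 Pre-em in loam/sand; post-em at 1–4 leaf (2–18 cm) in peat mix. Solvent + surfactant formulation. Greenhouse 13–15 d; visual % control vs untreated, 0–100.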

[2] = system: Italian ryegrass (Lolium multiflorum)
Summary of the method: as §1

[3] = system: wheat (Triticum aestivum)
Summary of the method: as §1

[4] = system: large crabgrass (Digitaria sanguinalis)
Summary of the method: as §1

[5] = system: lambsquarters (Chenopodium album)
Summary of the method: as §1

[6] = system: goosegrass (Eleusine indica)
Summary of the method: as §1

[7] = system: woolly cupgrass (Eriochloa villosa)
Summary of the method: as §1

[8] = system: Surinam grass (Brachiaria decumbens)
Summary of the method: as §1

[9] = system: ragweed (common ragweed, Ambrosia elatior)
Summary of the method: as §1

[10] = system: downy bromegrass (Bromus tectorum)
Summary of the method: as §1

[11] = system: pigweed (Amaranthus retroflexus)
Summary of the method: as §1

[12] = system: yellow nutsedge (Cyperus esculentus)
Summary of the method: as §1

[13] = system: green foxtail (Setaria viridis)
Summary of the method: as §1

[14] = 250 g ai/ha, Preemergence, 0 to 100 scale
[15] = Postemergence, 31 g ai/ha, scale 0 to 100 (0 no effect, 100 complete control)
[16] = Postemergence, 62 g ai/ha, scale 0 (no effect) to 100 (complete control), 13 to 15 days
[17] = Postemergence, 125 g ai/ha, visual rating after 13 to 15 days, scale 0 (no effect) to 100 (complete control)
[18] = Postemergence, 250 g ai/ha, scale 0 to 100
[19] = Preemergence, 31 g ai/ha, scale 0 to 100 (0 no effect, 100 complete control)
[20] = Preemergence, 62 g ai/ha, scale 0 to 100 (0 no effect, 100 complete control)
[21] = Preemergence, 125 g ai/ha, 0 to 100 scale

O=C1CCCC(O)=C1C(=O)c1cnc(-c2ccccc2)n(-c2ccccc2F)c1=O [Compound 26]
Plant response rating, Velvetleaf [1, 14]: 100 | Plant response rating, Velvetleaf [1, 15]: 70 | Plant response rating, Velvetleaf [1, 16]: 70 | Plant response rating, Velvetleaf [1, 17]: 95 | Velvetleaf plant response rating [1, 18]: 98 | Plant response rating, Velvetleaf [1, 19]: 50 | Plant response rating, Velvetleaf [1, 20]: 90 | Velvetleaf plant response rating [1, 21]: 100 | Plant response rating, Ryegrass, Italian [2, 14]: 0 | Plant response rating, Ryegrass, Italian [2, 15]: 0 | Plant response rating, Ryegrass, Italian [2, 16]: 0 | Plant response rating, Ryegrass, Italian [2, 17]: 10 | Ryegrass, Italian plant response rating [2, 18]: 45 | Plant response rating, Ryegrass, Italian [2, 19]: 0 | Plant response rating, Ryegrass, Italian [2, 20]: 0 | Ryegrass, Italian plant response rating [2, 21]: 0 | Plant response rating, Wheat [3, 14]: 0 | Plant response rating, Wheat [3, 15]: 0 | Plant response rating, Wheat [3, 16]: 0 | Plant response rating, Wheat [3, 17]: 5 | Wheat plant response rating [3, 18]: 30 | Plant response rating, Wheat [3, 19]: 0 | Plant response rating, Wheat [3, 20]: 0 | Wheat plant response rating [3, 21]: 0 | Plant response rating, Crabgrass, Large [4, 14]: 100 | Plant response rating, Crabgrass, Large [4, 15]: 40 | Plant response rating, Crabgrass, Large [4, 16]: 50 | Plant response rating, Crabgrass, Large [4, 17]: 50 | Crabgrass, Large plant response rating [4, 18]: 80 | Plant response rating, Crabgrass, Large [4, 19]: 0 | Plant response rating, Crabgrass, Large [4, 20]: 40 | Crabgrass, Large plant response rating [4, 21]: 100 | Plant response rating, Lambsquarters [5, 14]: 100 | Plant response rating, Lambsquarters [5, 15]: 80 | Plant response rating, Lambsquarters [5, 16]: 90 | Plant response rating, Lambsquarters [5, 17]: 90 | Lambsquarters plant response rating [5, 18]: 98 | Plant response rating, Lambsquarters [5, 19]: 98 | Plant response rating, Lambsquarters [5, 20]: 100 | Lambsquarters plant response rating [5, 21]: 100 | Plant response rating, Goosegrass [6, 14]: 100 | Plant response rating, Goosegrass [6, 15]: 60 | Plant response rating, Goosegrass [6, 16]: 90 | Plant response rating, Goosegrass [6, 17]: 95 | Goosegrass plant response rating [6, 18]: 95 | Plant response rating, Goosegrass [6, 19]: 5 | Goosegrass plant response rating [6, 21]: 95 | Plant response rating, Cupgrass, Woolly [7, 14]: 85 | Plant response rating, Cupgrass, Woolly [7, 15]: 40 | Plant response rating, Cupgrass, Woolly [7, 16]: 40 | Plant response rating, Cupgrass, Woolly [7, 17]: 85 | Cupgrass, Woolly plant response rating [7, 18]: 85 | Plant response rating, Cupgrass, Woolly [7, 19]: 0 | Plant response rating, Cupgrass, Woolly [7, 20]: 5 | Cupgrass, Woolly plant response rating [7, 21]: 50 | Plant response rating, Surinam Grass [8, 14]: 90 | Plant response rating, Surinam Grass [8, 15]: 30 | Plant response rating, Surinam Grass [8, 16]: 40 | Plant response rating, Surinam Grass [8, 17]: 60 | Surinam Grass plant response rating [8, 18]: 60 | Plant response rating, Surinam Grass [8, 19]: 0 | Plant response rating, Surinam Grass [8, 20]: 5 | Surinam Grass plant response rating [8, 21]: 90 | Plant response rating, Ragweed [9, 14]: 100 | Plant response rating, Ragweed [9, 15]: 70 | Plant response rating, Ragweed [9, 16]: 85 | Plant response rating, Ragweed [9, 17]: 98 | Ragweed plant response rating [9, 18]: 100 | Plant response rating, Ragweed [9, 19]: 65 | Plant response rating, Ragweed [9, 20]: 85 | Ragweed plant response rating [9, 21]: 95 | Plant response rating, Bromegrass, Downy [10, 14]: 10 | Plant response rating, Bromegrass, Downy [10, 15]: 10 | Plant response rating, Bromegrass, Downy [10, 16]: 15 | Plant response rating, Bromegrass, Downy [10, 17]: 20 | Bromegrass, Downy plant response rating [10, 18]: 40 | Plant response rating, Bromegrass, Downy [10, 19]: 0 | Plant response rating, Bromegrass, Downy [10, 20]: 0 | Bromegrass, Downy plant response rating [10, 21]: 0 | Plant response rating, Pigweed [11, 14]: 100 | Plant response rating, Pigweed [11, 15]: 50 | Plant response rating, Pigweed [11, 16]: 80 | Plant response rating, Pigweed [11, 17]: 85 | Pigweed plant response rating [11, 18]: 98 | Plant response rating, Pigweed [11, 19]: 98 | Plant response rating, Pigweed [11, 20]: 100 | Pigweed plant response rating [11, 21]: 100 | Plant response rating, Nutsedge, Yellow [12, 14]: 85 | Plant response rating, Nutsedge, Yellow [12, 15]: 30 | Plant response rating, Nutsedge, Yellow [12, 16]: 30 | Plant response rating, Nutsedge, Yellow [12, 17]: 35 | Nutsedge, Yellow plant response rating [12, 18]: 35 | Plant response rating, Nutsedge, Yellow [12, 19]: 10 | Plant response rating, Nutsedge, Yellow [12, 20]: 50 | Nutsedge, Yellow plant response rating [12, 21]: 50 | Plant response rating, Foxtail, Green [13, 14]: 70 | Plant response rating, Foxtail, Green [13, 15]: 35 | Plant response rating, Foxtail, Green [13, 16]: 40 | Plant response rating, Foxtail, Green [13, 17]: 85 | Foxtail, Green plant response rating [13, 18]: 95 | Plant response rating, Foxtail, Green [13, 19]: 0 | Plant response rating, Foxtail, Green [13, 20]: 0 | Foxtail, Green plant response rating [13, 21]: 30
